Data as given in patent US20100197765A1, “METHOD FOR PROMOTING THE EXPRESSION OF P53, AND P53 EXPRESSION PROMOTER FOR USE IN THE METHOD” (THE UNIVERSITY OF TOKUSHIMA, priority 2007, published 2010).

Experiments:
[1] = system: noxa mRNA, puma mRNA, and p21 mRNA; experiment: expression of mRNAs induced in p53 pathways in HepG2 cells (Northern); assay type: cell-based, human; conditions: HepG2, 5-FU 30 μmol/L, 16 hours
Method: In the same manner, HepG2 cells transfected with each type of the vectors were treated for 16 hours in the presence of 5-FU (30 μmol/L) (+) or the absence of 5-FU (−). With respect to the treated cells, expression of noxa mRNA, puma mRNA, and p21 mRNA induced in p53 pathways was analyzed by the Northern blotting. […] In FIG. 1D, the first row from the top indicates expression of noxa mRNA, the second row indicates expression of puma mRNA, the third row indicates expression of p21 mRNA, and the fourth row indicates expression of gapdh mRNA. Definitions of the lanes in FIG. 1D are the same as those of FIG. 1C.

[2] = system: HCT116 cells; experiment: apoptosis of siRNA-expressing HCT116 cells treated with low-concentration anticancer agents, with or without rVEGF; assay type: cell-based, human; conditions: for enhancement of apoptosis when cells were treated with rVEGF protein: HCT116, 1 ng/ml rVEGF plus anticancer agents; for apoptosis by treatments with anticancer agents of low concentrations: HCT116, etoposide 20 μmol/L, doxorubicin 170 nmol/L, 5-FU 40 μmol/L, 60 hours, vs untreated
Method: The recombinant vectors that express vegf siRNA#1 and #2 and the vectors that express control siRNA were transfected into HCT116 cells (parent cells, wild-type p53). As a control cell, an HCT116 cell not transfected with a recombinant vector that expresses siRNA was used. These four types of cells were treated in the presence or absence of various anticancer agents having the final concentrations as described below for 60 hours. As the anticancer agent, etoposide (20 μmol/L), doxorubicin (170 nmol/L), and 5-FU (40 μmol/L) were used. With respect to the treated cells, apoptosis (%) was quantified in the same manner as in Example A1.
UTR RNA and function of VEGF protein. With the aim of clarifying an effect of blocking the function of vegf 5′ UTR RNA, recombinant VEGF protein (R&D systems, hereinafter referred to as “rVEGF”) was added to a culture supernatant of cells transfected with vegf siRNA in order to add VEGF protein that is decreased due to siRNA. […] Therefore, in Example A9, 1 ng/ml of rVEGF protein was added to the four types of cells. […] Then, these transfection cells were treated with anticancer agents in the same manner as described above.

[3] = system: HCT116 cell strain; experiment: tumor volume of si-vegf #1 HCT116 cell strain xenografted to nude mice; assay type: in vivo; conditions: si-vegf #1 cells vs si-Control cells, subcutaneous, n=5
Excerpt: With regard to cells expressing siRNA against vegf, the effect thereof on the tumorigenicity in vivo was examined. Vegf siRNA #1 vectors expressing the above-described siRNA #1 were transfected into a HCT116 cell strain (wild-type p53) derived from human large bowel cancer, and the transfected cells were selected with an antibiotic blasticidin. The thus-obtained cell clone hereinafter is referred to as a si-vegf #1 cell strain. As a control, pcDNA6.2-GW/EmGFP-miR vectors (Invitrogen) to which a double-stranded oligonucleotide with a sequence (SEQ ID NO. 46: 5′-[…]-3′) having no homology to known vertebrate genes had been inserted were used (control siRNA vectors) as in the above. The […] cell strain was transfected with these control siRNA vectors in the same manner as in the above, and the transfected cells were selected with the antibiotic. The thus-obtained cell clone hereinafter is referred to as a si-Control cell strain. Then, the si-vegf #1 cell strain and the si-Control cell strain respectively were xenografted subcutaneously to femoral regions of nude mice, and the volume of the formed tumor was measured after the predetermined time (each n=5) in the same manner as in Example C2.

[4] = system: vegf mRNA; experiment: vegf mRNA by quantitative RT-PCR in siRNA-transfected HCT116 cells; assay type: cell-based, human; conditions: HCT116, 18 hours after transfection, ratio to gapdh mRNA
Method: From 1 μg of total RNA, cDNA was synthesized using SuperScriptII RNaseH(−) reverse transcriptase (Invitrogen), and PCR was performed using primers for amplification-purpose nucleic sequences with the cDNA being a template. The amplification and the quantitative analysis of PCR products were performed using Applied Biosystems 7500 (Applied Biosystems) by the method recommended by the manufacturer.
Whether or not vegf siRNA promotes the apoptosis sensitivity of cells was examined. In the same manner as in Example A1 except that HCT116 cells (parent cells, wild-type p53) were used instead of the HepG2 cells (wild-type p53), the vegf siRNA #1 vectors expressing siRNA #1, the vegf siRNA #2 vectors expressing siRNA #2, and the control siRNA vectors described above were respectively transfected into the HCT116 cells (parent cells, wild-type p53). Then, with regard to the cells after 18 hours from the transfection, the expression levels of vegf mRNA and gapdh mRNA were analyzed by quantitative RT-PCR (means±SD, n=4) and the expression levels of vegf IresRNA and gapdh mRNA were analyzed by Northern blotting. Also, with regard to HCT116 cells not transfected with the above-described recombinant vectors, the analyses were conducted in the same manner. The quantitative RT-PCR was conducted in the same manner as in Example B1, except that a primer set for vegf mRNA was used.

[5] = system: p53-deleted cells HCT116; experiment: apoptosis (TUNEL) in p53-deleted HCT116 cells with vegf siRNA and 5-FU; assay type: cell-based, human; conditions: p53-deleted cells HCT116, 5-FU treated, 60 hours
Method: Apoptotic cells were evaluated by a TUNEL staining method using in situ Cell Death Detection kit (Roche Diagnostic). […] The counting was performed with respect to at least 300 cells in one measurement.
Various types of cells were treated with 5-FU, which is an anticancer agent inducing apoptosis in a p53-dependent manner, and the sensitivity to apoptosis was analyzed. The vegf siRNA#1 vectors expressing siRNA#1, the vegf siRNA #2 vectors expressing siRNA #2, and the control siRNA vectors described above respectively were transfected into HCT 116 (parent cells) and p53-deleted cells HCT116. Then, the cells after 18 hours from the transfection was treated for 60 hours in the presence of […] of 5-FU (+) or in the absence of 5-FU (−). The proportion (%) of apoptosis positive cells in the thus-treated cells was calculated based on “Apoptotic evaluation 2” above (means±SD, n=4).

[6] = system: p53; experiment: endogenous p53 mRNA (quantitative RT-PCR) and p53 protein (Western) in siRNA-transfected HCT116 cells; assay type: cell-based, human
Method: From the results obtained in the above (1) and (2), it is interpreted that vegf IresRNA exerts an adverse influence in the p53 cancer suppression pathway. Thus, the expression level of endogenous p53 in cells transfected with vegf siRNA was examined. Specifically, the same transfected parent cells […] as in the above were treated for 8 hours in the presence of 80 lμmol/L of 5-FU (+) or in the absence of 5-FU (−), after which expression of p53 mRNA was analyzed by quantitative RT-PCR (means±SD, n=4). Also, the transfected cells were treated in the presence of 80 μmol/L of 5-FU (+) for a predetermined time (0, 8, 16, 24 hours), after which p53 protein was detected by the Western immunoblotting described above.

[7] = HCT116, absence of 5-FU, vs control
[8] = HCT116, further treated with 5-FU 80 μmol/L, 8 hours
[9] = HCT116, further treated with 5-FU 80 μmol/L, up to 24 hours

| Substance | expression induction of noxa mRNA, puma mRNA, and p21 mRNA [1] | enhancement of apoptosis when cells were treated with rVEGF protein [2] | apoptosis by treatments with anticancer agents of low concentrations [2] | tumor formation and tumor growth [3] | amount of the vegf mRNA expressed [4] | increase in proportion of apoptosis on siRNA expression [5] | amount of the expressed p53 mRNA [6, 7] | amount of the expressed p53 mRNA [6, 8] | amount of the expressed p53 protein [6, 9] | amount of the expressed p53 protein ([6]; HCT116, vs control) |
| --- | --- | --- | --- | --- | --- | --- | --- | --- | --- | --- |
| siRNA #1: siRNA against vegf mRNA, SEQ ID NO 3/4, antisense complementary to bases 1062-1082 in SEQ ID NO. 1; expressed from pcDNA6.2-GW/EmGFP-miR vector (sense GCAUUGGACUUGCCUUGCUNN; antisense AGCAAGGCAAGGCUCCAAUGCNN) | enhanced markedly | affected very little | enhanced markedly | significant suppression | decreased markedly | little increase | increased | increased markedly | increased markedly | increased |
| siRNA #2: siRNA against vegf mRNA, SEQ ID NO 5/6, antisense complementary to bases 1067-1087 in SEQ ID NO. 1; vector-expressed (sense GGAGCCUUGUUGCUGCUCUNN; antisense AGAGCAGCAAGGCAAGGCUCCNN) | enhanced markedly | affected very little | enhanced markedly | – | decreased markedly | little increase | increased | increased markedly | increased markedly | increased |
